Measurements: patent publication US20230364057A1, “BACTERIAL DNA GYRASE INHIBITORS AND METHODS OF USE THEREOF” (THE FLORIDA INTERNATIONAL UNIVERSITY BOARD OF TRUSTEES, priority 2022, published 2023)

How the values were obtained:
E. coli DNA gyrase [1] = biological target: T1, E. coli DNA gyrase (Escherichia coli (strain K12), UniProt P0AES4+P0AES6); test: Agarose gel-based DNA gyrase inhibition assay; format: biochemical
Protocol: 100 ng of DNA gyrase was used to supercoil the rx pAB1 in the presence of different concentrations of a gyrase inhibitor. […] Samples were analyzed by electrophoresis in 1% w/v agarose gels followed by ethidium bromide staining and photographed under UV light.

E. coli DNA gyrase [2] = biological target: T1, E. coli DNA gyrase; test: biochemical; format: biochemical
[3] = IC50 (50-200 µM), bin of Table 2
[4] = IC50 ([…]-50 µM), bin of Table 2
[5] = IC50 (15-[…] µM), bin of Table 2

| Compound | inhibition of E. coli DNA gyrase activities (E. coli DNA gyrase [1]; 200 µM of compounds) | IC50 (E. coli DNA gyrase [2]; [3]) [µM] | inhibition of E. coli DNA gyrase activities (E. coli DNA gyrase [1]; 50 µM of compounds) | also measured |
| --- | --- | --- | --- | --- |
| COc1ccc(C2=NN(c3nc(-c4ccccc4)c(CC(=O)O)s3)C(c3ccco3)C2)cc1 (stereo not drawn) [Compound 10] | completely inhibited | 50 to 200 |  |  |
| CCN1C(=O)C(=CC=CN(C)c2ccccc2)SC1=S [Compound 227] | potently inhibited | 50 to 200 |  |  |
| CN(C)c1ccc(/C=C2/C(=O)N(CCc3ccc(F)cc3)C(=O)N=C2O)cc1 [Compound 38] | completely inhibited | 50 to 200 |  |  |
| C(=Cc1ccco1)c1nc2ccccc2[nH]1 [Compound 129] |  | 50 to 200 | potently inhibited |  |
| O=C(Nc1nc2cc3c(cc2s1)OCO3)C1CC1 [Compound 15] | completely inhibited | 50 to 200 |  |  |
| CCOC(=O)C1=C(Nc2ccc(C)cc2)S/C(=C\c2ccc(-c3ccccc3C(=O)O)o2)C1=O [Compound 60] | completely inhibited | 50 to 200 |  |  |
| O=C(O)C1Nc2ccccc2C2C=CCC12 (stereo not drawn) [Compound 83] | completely inhibited | 50 to 200 | almost completely inhibited | inhibition of E. coli DNA gyrase activities (E. coli DNA gyrase [2]): inhibit E. coli DNA gyrase strongly |
| COC1C(C)OC(OC2CC(C)(O)Cc3cc4c(c(O)c32)C(=O)c2c(O)cc3c(c2C4=O)OC2OC3(C)C(O)C(N(C)C)C2O)C(OC)C1(C)OC (stereo not drawn) [Compound 224] | completely inhibited |  | completely inhibited | IC50 (E. coli DNA gyrase [2]; [4]): 25 to 50 µM |
| O=C(O)CC(C(=O)O)N1C(=O)/C(=C/c2ccc(-c3nc4ccccc4s3)o2)SC1=S (stereo not drawn) [Compound 62] | completely inhibited | 50 to 200 | almost completely inhibited |  |
| CCCn1c(/C=C/c2ccco2)nc2ccccc21 [Compound 53] | completely inhibited | 50 to 200 | almost completely inhibited |  |
| O=C(Cc1ccccc1)c1ccccn1 [Compound 213] | completely inhibited | 50 to 200 |  |  |
| Cc1cc(/C=C2\SC(=S)N=C2O)c(C)n1-c1ccccc1 [Compound 29] | completely inhibited |  | completely inhibited | IC50 (E. coli DNA gyrase [2]; [4]): 25 to 50 µM |
| CCc1ccc(S(=O)(=O)/N=C2/C=C(Nc3cccc(C(=O)O)c3)C(=O)c3ccccc32)cc1 [Compound 17] | completely inhibited | 50 to 200 |  |  |
| Cc1n[nH]c(SC(Cc2ccc(-c3cccc(Cl)c3)o2)C(=O)O)n1 (stereo not drawn) [Compound 18] | completely inhibited |  | completely inhibited | IC50 (E. coli DNA gyrase [2]; [4]): 25 to 50 µM |
| Cc1ccc(/C=C2\SC(N3CCN(C(c4ccccc4)c4ccccc4)CC3)=NC2=O)o1 [Compound 33] | completely inhibited | 50 to 200 |  |  |
| Cc1cc(-c2csc(N)n2)c(C)n1-c1ccccc1.Cl [Compound 70] | completely inhibited | 50 to 200 |  |  |
| N#CC(=Cc1ccc(C(=O)O)cc1)c1nc2sc3c(c2c(=O)[nH]1)CCCC3 [Compound 12] | completely inhibited |  | completely inhibited | IC50 (E. coli DNA gyrase [2]; [4]): 25 to 50 µM |
| Cc1onc(-c2ccccc2)c1C(=O)Nc1sccc1C#N [Compound 112] |  | 50 to 200 | potently inhibited |  |
| CC(C)(C)N1C(=O)N=C(O)/C(=C\c2ccc3c(c2)CCN3CCCCl)C1=O [Compound 23] | completely inhibited |  | completely inhibited | IC50 (E. coli DNA gyrase [2]; [4]): 25 to 50 µM |

| Compound | inhibition of E. coli DNA gyrase activities (E. coli DNA gyrase [1]; 200 µM of compounds) | IC50 (E. coli DNA gyrase [2]; [3]) [µM] | inhibition of E. coli DNA gyrase activities (E. coli DNA gyrase [1]; 50 µM of compounds) | also measured |
| --- | --- | --- | --- | --- |
| COC(=O)C1C2CC3c4[nH]c5cc(OC)ccc5c4CCN3CC2CC(OC(=O)c2ccc(N)cc2)C1OC (stereo not drawn) [Compound 204] | potently inhibited | 50 to 200 |  |  |
| CCOc1ccc(S(=O)(=O)Nc2nc3ccccc3nc2Nc2ccc(N3CCOCC3)cc2)cc1 [Compound 130] |  | 50 to 200 | potently inhibited |  |
| Cc1cc(/C=C2/SC(=S)N(c3cccc(Cl)c3)C2=O)c(C)n1-c1cccnc1 [Compound 171] |  |  | completely inhibited | IC50 (E. coli DNA gyrase [2]; [5]): 15 to 25 µM |
| CCOC(=O)c1cc(-c2ccc(N3CCOCC3)cc2)nn1-c1ccccc1C(=O)O [Compound 7] | completely inhibited |  | completely inhibited | IC50 (E. coli DNA gyrase [2]; [4]): 25 to 50 µM |
| Cc1ccc(/N=C2N=C(O)/C(=C/C=C/c3ccco3)S\2)cc1C [Compound 169] |  |  | completely inhibited | IC50 (E. coli DNA gyrase [2]; [5]): 15 to 25 µM |
| N#CC(C#N)=C1C=CC=CN1C(=Cc1ccccc1)C(=O)c1cccs1 [Compound 131] |  | 50 to 200 | potently inhibited |  |
| O=C1C(Cl)=C(NCCc2ccccc2)C(=O)c2ccccc21 [Compound 205] | potently inhibited | 50 to 200 |  |  |
| CC(=O)NC1=NC(=O)/C(=C/c2cc(C)n(-c3cccc(C(=O)O)c3)c2C)S1 [Compound 31] | completely inhibited | 50 to 200 |  |  |
| O=C1N/C(=N\c2ccc3ccccc3c2)S/C1=C/c1ccco1 [Compound 163] |  |  | completely inhibited | IC50 (E. coli DNA gyrase [2]; [5]): 15 to 25 µM |
| O=C1/C(=C/c2ccc(O)cc2)SC(=S)N1Cc1cccnc1 [Compound 168] |  | 50 to 200 | potently inhibited |  |
| CCc1ccc(OCC(=O)/N=c2/[nH]nc(-c3ccco3)s2)cc1 [Compound 22] | completely inhibited | 50 to 200 |  |  |
| Cc1cc(C(=O)Nc2ccccc2C(=O)O)ccc1NC(=O)COc1ccccc1Cl [Compound 65] | almost completely inhibited | 50 to 200 |  |  |
| CCOC(=O)C1=C(C)NC(=O)NC1c1ccc(N2CCC(c3ccccc3)=N2)cc1 (stereo not drawn) [Compound 68] | almost completely inhibited | 50 to 200 |  |  |
| Cc1ccc([S+]([O-])c2ccc([N+](=O)[O-])c3nonc23)cc1 (stereo not drawn) [Compound 222] | completely inhibited |  | completely inhibited | IC50 (E. coli DNA gyrase [2]; [4]): 25 to 50 µM |
| O=C1c2ccccc2C(=O)c2cc(N3CCCCC3)ccc21 [Compound 206] | potently inhibited | 50 to 200 |  |  |
| O=C(O)c1cc(N2N=C(C(F)(F)F)/C(=C/C=C/c3ccco3)C2=O)ccc1Cl [Compound 49] | completely inhibited |  | almost completely inhibited | IC50 (E. coli DNA gyrase [2]; [4]): 25 to 50 µM |
| O=C1c2ccccc2C(=O)c2c1ccc(O)c2O [Compound 256, Alizarin] | completely inhibited |  |  | IC50 (E. coli DNA gyrase [2]; [4]): 25 to 50 µM; IC50 (E. coli DNA gyrase [2]; IC50 against E. coli DNA gyrase): < 10 µM |
| Cc1cc(C)c(-c2nc3ccccc3s2)[nH]1 [Compound 13] | almost completely inhibited | 50 to 200 |  |  |
| CCN(CCCNc1cc2c(c(N)c1S(=O)(=O)O)C(=O)c1ccccc1C2=O)c1ccccc1 [Compound 215] | completely inhibited |  | completely inhibited | IC50 (E. coli DNA gyrase [2]; [4]): 25 to 50 µM |
